Laboratory results reported in patent US10738097B2, “Interferon-beta analog peptide” (priority 2017, dated 2020).

How the values were obtained:
Format in all cases: in vivo, mouse
interleukin 1β (IL1β) = assay: Plasma IL1β of EAE mice, ELISA; details: 21 days after EAE induction
Method: (§1) Moreover, after 21 days of EAE induction, mice were euthanized and their blood was obtained via cardiac puncture and plasma was prepared. Expression levels of tumor necrosis factor-alpha (TNFα) and interleukin 1β (IL1β) as circulating inflammatory biomarkers were measured in the plasma using quantitative enzyme-linked immunosorbent assay (ELISA) kits.

[1] = tested on: matrix metalloproteinase 2 (MMP2); assay: MMP2 gene expression in brain tissue of EAE mice, quantitative real-time PCR; details: 20 mg/kg
Method: (§2) In this example, effects of the IFNβ analog peptide as the IFNβ analog peptide on the expression of some related inflammations mediators such as matrix metalloproteinase 2 (MMP2) and matrix metalloproteinase 9 (MMP9) were studied using quantitative real-time polymerase chain reaction (PCR).
(§3) The EAE mice were treated with PBS as the vehicle group, and dosage of the IFNβ analog peptide and IFNβ was 20 mg/kg in IFNβ analog peptide-treated mice and IFNβ-treated mice groups. After that RNA of the cells was extracted and their cDNA was synthesized.

CD45 positive cells = CD45 positive cells in cerebral cortex of EAE mice; details: 10 and 20 mg/kg, particularly 20 mg/kg, day 21
Method: (§4) Furthermore, brain inflammatory response after IFNβ analog peptide treatment as the IFNβ analog peptide was evaluated by measuring the number of IL-17 positive cells, CD11b positive cells, and CD45 positive cells. IL-17 is the most important pro-inflammatory cytokine produced by T-helper cells, CD11b is an activated macrophages and microglia marker, and CD45 is a general leukocytes marker.
(§5) After 21 days of EAE induction, mice were euthanized and were transcardially perfused with PBS. Then, the brains were dissected; cerebral cortex was isolated and snap-frozen in liquid nitrogen.

[2] = tested on: matrix metalloproteinase 9 (MMP9); assay: MMP9 gene expression in brain tissue of EAE mice, quantitative real-time PCR; details: 20 mg/kg
Method: as §2, §3

IL-17 positive cells = IL-17 positive cells in cerebral cortex of EAE mice; details: 10 and 20 mg/kg, particularly 20 mg/kg, day 21
Method: as §4, §5

EAE-induced C57BL/6 mice = assay: Clinical score in MOG-induced experimental autoimmune encephalomyelitis (EAE); details: IFNβ analog peptide = SEQ ID No. 1
Method: In this example, therapeutic effects of the IFNβ analog peptide with SEQ ID No. 1 on the development of progressive experimental autoimmune encephalomyelitis (EAE) were studied. At first, EAE was induced in 8 weeks old C57BL/6 male mice with a weight between 20 grams and 25 grams. In order to induce EAE, mice were anesthetized with isoflurane and subcutaneously injected with 100 μl of MOG (myelin oligodendrocyte glycoprotein) with a concentration of about 2.5 g/l suspended in 100 μl complete Freund's adjuvant (CFA) into the hind flank. Mice were also intraperitoneally injected with 400 ng of pertussis toxin in 200 μl of phosphate buffered saline (PBS). A second, identical injection of pertussis toxin was given two days following the first immunization. Injections were distributed over four spots, for example about 100 μl per site across the flank areas. […]
After that, in order to conduct clinical evaluation, mice of the experimental groups were blinded scored as follows: score 0 for no overt signs of disease, score 1 for limp tail, score 2 for limp tail and hind limb weakness, score 3 for partial hind limb paralysis of one side (hemiparesis) or both sides (paraparesis), score 4 for complete hind limb paralysis of one side (hemiplegia) or both sides (paraplegia), score 5 for moribund state. The day of immunization was considered as EAE day 0 and clinical behavior of mice was scored daily. […]

[3] = tested on: tumor necrosis factor-alpha (TNFα); assay: Plasma TNFα of EAE mice, ELISA; details: 21 days after EAE induction
Method: as §1

CD11b positive cells = CD11b positive cells in cerebral cortex of EAE mice; details: 10 and 20 mg/kg, particularly 20 mg/kg, day 21
Method: as §4, §5

[4] = P<0.05, SEQ ID of peptide not stated in Example 6

Substance: IFNβ: Interferon-beta, first-line treatment for relapsing-remitting multiple sclerosis; comparator
- Reduction of IL1β, IFNβ versus IFNβ analog peptide (interleukin 1β (IL1β)): reduction of these inflammation mediators was more in IFNβ-treated mice
- Plasma level of IL1β compared to the vehicle group (interleukin 1β (IL1β); P-value<0.05): significant decrease
- Reduction of MMP2, IFNβ versus IFNβ analog peptide [1]: reduction of these inflammation mediators was more in IFNβ-treated mice
- MMP2 gene expression fold change in the brain tissue compared to the vehicle group [1, 4]: significant decrease
- Percentage of CD45 positive cells in the cerebral cortex (CD45 positive cells): considerably decreased
- Reduction of MMP9, IFNβ versus IFNβ analog peptide [2]: reduction of these inflammation mediators was more in IFNβ-treated mice
- MMP9 gene expression fold change in the brain tissue compared to the vehicle group [2, 4]: significant decrease
- Percentage of IL-17 positive cells in the cerebral cortex (IL-17 positive cells): considerably decreased
- Effect of raising the dose on EAE clinical symptoms (EAE-induced C57BL/6 mice; 20 mg/kg versus 10 mg/kg): improved disease protection
- Mean clinical score (AUC) versus vehicle group and EAE group (EAE-induced C57BL/6 mice; 10 and 20 mg/kg injected on day 14 of EAE induction): significant reduction in the clinical score
- Reduction of TNFα, IFNβ versus IFNβ analog peptide [3]: reduction of these inflammation mediators was more in IFNβ-treated mice
- Plasma level of TNFα compared to the vehicle group ([3]; P-value<0.05): significant decrease
- Percentage of CD11b positive cells in the cerebral cortex (CD11b positive cells): considerably decreased
